Assays:
[1] = Physical form by X-ray powder diffraction (XRPD); format: physicochemical; settings: no sharp scattering peaks attributable to crystalline onapristone
Source text: In one aspect, amorphous onapristone is formed by adding onapristone to water, dissolving the onapristone in the water by adding one equivalent of an acid solution, and subsequently increasing the pH of the solution by the addition of one equivalent of base. At the end of this process, an amorphous precipitate is formed which may be isolated and characterized. […] The presence of a crystalline substance is indicated by the presence of sharp peaks (i.e., those whose width at half-height is in the range of 0.3 to 0.5 degrees 2θ) in an XRPD pattern, while the XRPD pattern of an amorphous substance is characterized by the presence of broad scattering peaks (i.e., those whose width at half-height is in the range of at least 8 to 12 degrees 2θ).
The physical form of onapristone, either as the bulk drug substance or in its compositions, was established using X-ray powder diffraction (XRPD). XRPD patterns were obtained using a Rigaku MiniFlex powder diffraction system, equipped with a horizontal goniometer operating in the θ/2θ mode. The X-ray source was nickel-filtered Kα emission of copper (1.54184 Å). Samples were packed into the sample holder using a back-fill procedure, and were scanned over the range of 3.5 to 40 degrees 2θ at a scan rate of 0.5 degrees 2θ/min. Using a data acquisition rate of 1 point per second, these scanning parameters equate to a step size of 0.0084 degrees 2θ. […]

[2] = Physical stability of amorphous form on storage under ambient conditions, followed by XRPD; format: physicochemical
Source text: The physical form of onapristone, either as the bulk drug substance or in its compositions, was established using X-ray powder diffraction (XRPD). XRPD patterns were obtained using a Rigaku MiniFlex powder diffraction system, equipped with a horizontal goniometer operating in the θ/2θ mode. The X-ray source was nickel-filtered Kα emission of copper (1.54184 Å). Samples were packed into the sample holder using a back-fill procedure, and were scanned over the range of 3.5 to 40 degrees 2θ at a scan rate of 0.5 degrees 2θ/min. Using a data acquisition rate of 1 point per second, these scanning parameters equate to a step size of 0.0084 degrees 2θ. Calibration of the diffractometer system was effected using purified talc as a reference material. The intensity scale for all diffraction patterns was normalized so that the relative intensity of the most intense peak in the pattern equaled 100%.
After the initial characterization, the substance was placed in a glass vial, and stored under ambient conditions (temperature of 22-24° C.). The product was subsequently obtained after storage under ambient conditions for 25 weeks, 43 weeks, and 16.5 months.
XRPD patterns of these samples were obtained when initially received and after 12 weeks, 20 weeks, 36 weeks, and 15 months had elapsed. The XRPD patterns obtained for sample SSF-PDS-027-001A are collected in FIG. 2, while the XRPD patterns obtained for sample SSF-PDS-027-001B are collected in FIG. 3.

SMILES: CN(C)c1ccc([C@H]2C[C@]3(C)[C@@H](CC[C@]3(O)CCCO)[C@@H]3CCC4=CC(=O)CCC4=C32)cc1 [pH-cycled onapristone]
- physical form of onapristone by XRPD as initially prepared [1]: amorphous
- storage period over which the drug substance remained amorphous ([2]; stored under ambient conditions (22-24° C.)): ≥ 16.5 months
- storage period over which the drug substance remained amorphous ([2]; stored under ambient conditions (22-24° C.), listed as pH-cycled product): at least 16.5 months

SMILES: CN(C)c1ccc([C@H]2C[C@]3(C)[C@@H](CC[C@]3(O)CCCO)[C@@H]3CCC4=CC(=O)CCC4=C32)cc1 [solvation-desolvation product]
- storage period over which the drug substance remained amorphous ([2]; stored under ambient conditions): at least 29 weeks
